Assay results: article PMC6478789, “A chemical toolbox for the study of bromodomains and epigenetic signaling” (Nature Communications, 2019)

Key:
Assay in all cases: Methyl transferase scintillation proximity assay
Assay type in all cases: biochemical
Conditions in all cases: average of two measurements; for inhibition at 10 µM: read-out: MTases Inhibition (%)
[1] = target: T1, SUV39H2 (Homo sapiens, UniProt Q9H5I1)
T1 construct: purchased DiscoverX BROMOscan (bromodomains); SGC in-house methyltransferase panel
T1 sequence (Q9H5I1 whole entry): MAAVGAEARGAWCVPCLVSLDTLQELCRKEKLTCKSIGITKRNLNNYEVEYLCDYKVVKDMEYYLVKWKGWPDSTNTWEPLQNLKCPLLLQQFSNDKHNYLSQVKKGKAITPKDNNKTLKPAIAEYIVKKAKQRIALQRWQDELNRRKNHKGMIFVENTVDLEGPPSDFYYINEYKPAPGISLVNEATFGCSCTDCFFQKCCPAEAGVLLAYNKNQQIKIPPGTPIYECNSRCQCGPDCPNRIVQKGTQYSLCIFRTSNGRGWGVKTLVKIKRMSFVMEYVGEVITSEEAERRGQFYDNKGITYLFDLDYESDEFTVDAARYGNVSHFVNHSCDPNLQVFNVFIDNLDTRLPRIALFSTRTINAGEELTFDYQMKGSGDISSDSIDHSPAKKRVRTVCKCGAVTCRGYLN
Summary of the method: (§1)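 Methylation is monitored as incorporation of tritium from ^3H-SAM into a biotinylated substrate, with cofactor and substrate near apparent Km for every enzyme. After guanidine quench and 1 h plate capture, CPM is scaled between no-enzyme background and uninhibited control.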

[2] = target: T2, PRC2-EZH2 (Homo sapiens, UniProt Q15910)
T2 construct: purchased DiscoverX BROMOscan (bromodomains); SGC in-house methyltransferase panel
T2 sequence (Q15910 whole entry): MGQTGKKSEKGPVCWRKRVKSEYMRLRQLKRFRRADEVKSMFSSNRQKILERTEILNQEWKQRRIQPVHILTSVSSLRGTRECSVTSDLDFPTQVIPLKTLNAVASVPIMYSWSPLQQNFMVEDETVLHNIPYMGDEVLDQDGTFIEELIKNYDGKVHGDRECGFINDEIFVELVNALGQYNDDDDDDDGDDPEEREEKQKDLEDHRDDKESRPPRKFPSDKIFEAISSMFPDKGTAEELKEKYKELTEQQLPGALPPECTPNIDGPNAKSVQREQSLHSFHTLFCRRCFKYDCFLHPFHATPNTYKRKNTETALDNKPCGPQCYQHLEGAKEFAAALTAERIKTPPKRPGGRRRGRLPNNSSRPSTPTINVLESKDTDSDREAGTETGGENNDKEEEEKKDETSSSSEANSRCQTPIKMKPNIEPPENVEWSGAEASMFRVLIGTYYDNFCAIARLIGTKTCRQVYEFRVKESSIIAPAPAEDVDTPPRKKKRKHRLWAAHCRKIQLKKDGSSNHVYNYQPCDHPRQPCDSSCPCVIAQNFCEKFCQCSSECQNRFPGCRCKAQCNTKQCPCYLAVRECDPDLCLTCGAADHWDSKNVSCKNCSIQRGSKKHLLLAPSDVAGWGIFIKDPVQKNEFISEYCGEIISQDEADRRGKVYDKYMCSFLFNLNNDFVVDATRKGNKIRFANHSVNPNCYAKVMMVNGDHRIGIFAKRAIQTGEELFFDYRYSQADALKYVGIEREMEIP
T2 sequence (O75530 whole entry partner): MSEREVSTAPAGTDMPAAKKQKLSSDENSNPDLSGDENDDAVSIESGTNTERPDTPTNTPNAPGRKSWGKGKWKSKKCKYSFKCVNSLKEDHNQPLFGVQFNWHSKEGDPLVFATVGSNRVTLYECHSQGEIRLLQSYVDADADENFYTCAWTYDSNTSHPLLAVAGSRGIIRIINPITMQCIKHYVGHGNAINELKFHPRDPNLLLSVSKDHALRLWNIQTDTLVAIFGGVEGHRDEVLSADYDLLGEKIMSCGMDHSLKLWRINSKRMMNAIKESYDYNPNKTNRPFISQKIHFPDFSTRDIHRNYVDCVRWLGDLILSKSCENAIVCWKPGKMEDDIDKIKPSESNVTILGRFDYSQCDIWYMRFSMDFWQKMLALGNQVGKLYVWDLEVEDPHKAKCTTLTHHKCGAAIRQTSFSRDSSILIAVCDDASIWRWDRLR
T2 sequence (Q15022 whole entry partner): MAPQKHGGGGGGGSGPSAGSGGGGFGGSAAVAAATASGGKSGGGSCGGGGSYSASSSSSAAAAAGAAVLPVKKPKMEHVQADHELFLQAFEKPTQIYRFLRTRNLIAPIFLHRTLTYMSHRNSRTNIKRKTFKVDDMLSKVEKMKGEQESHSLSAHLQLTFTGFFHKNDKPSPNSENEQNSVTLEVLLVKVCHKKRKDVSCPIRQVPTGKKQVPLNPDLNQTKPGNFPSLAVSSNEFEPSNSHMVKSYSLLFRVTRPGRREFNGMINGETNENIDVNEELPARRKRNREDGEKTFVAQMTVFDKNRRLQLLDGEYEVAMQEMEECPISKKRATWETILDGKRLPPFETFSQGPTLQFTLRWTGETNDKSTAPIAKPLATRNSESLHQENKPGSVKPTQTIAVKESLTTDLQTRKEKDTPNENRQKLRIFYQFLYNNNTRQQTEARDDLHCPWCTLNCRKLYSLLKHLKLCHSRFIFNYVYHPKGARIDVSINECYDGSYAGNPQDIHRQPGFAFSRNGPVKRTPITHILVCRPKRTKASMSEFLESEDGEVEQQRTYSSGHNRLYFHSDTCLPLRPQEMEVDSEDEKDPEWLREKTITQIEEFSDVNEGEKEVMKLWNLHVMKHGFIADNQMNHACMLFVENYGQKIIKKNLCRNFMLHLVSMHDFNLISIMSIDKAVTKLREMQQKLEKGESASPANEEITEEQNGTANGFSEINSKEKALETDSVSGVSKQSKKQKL
Summary of the method: as §1

[3] = target: T3, GLP (Homo sapiens, UniProt Q9H9B1)
T3 construct: purchased DiscoverX BROMOscan (bromodomains); SGC in-house methyltransferase panel
T3 sequence (Q9H9B1 1-1298): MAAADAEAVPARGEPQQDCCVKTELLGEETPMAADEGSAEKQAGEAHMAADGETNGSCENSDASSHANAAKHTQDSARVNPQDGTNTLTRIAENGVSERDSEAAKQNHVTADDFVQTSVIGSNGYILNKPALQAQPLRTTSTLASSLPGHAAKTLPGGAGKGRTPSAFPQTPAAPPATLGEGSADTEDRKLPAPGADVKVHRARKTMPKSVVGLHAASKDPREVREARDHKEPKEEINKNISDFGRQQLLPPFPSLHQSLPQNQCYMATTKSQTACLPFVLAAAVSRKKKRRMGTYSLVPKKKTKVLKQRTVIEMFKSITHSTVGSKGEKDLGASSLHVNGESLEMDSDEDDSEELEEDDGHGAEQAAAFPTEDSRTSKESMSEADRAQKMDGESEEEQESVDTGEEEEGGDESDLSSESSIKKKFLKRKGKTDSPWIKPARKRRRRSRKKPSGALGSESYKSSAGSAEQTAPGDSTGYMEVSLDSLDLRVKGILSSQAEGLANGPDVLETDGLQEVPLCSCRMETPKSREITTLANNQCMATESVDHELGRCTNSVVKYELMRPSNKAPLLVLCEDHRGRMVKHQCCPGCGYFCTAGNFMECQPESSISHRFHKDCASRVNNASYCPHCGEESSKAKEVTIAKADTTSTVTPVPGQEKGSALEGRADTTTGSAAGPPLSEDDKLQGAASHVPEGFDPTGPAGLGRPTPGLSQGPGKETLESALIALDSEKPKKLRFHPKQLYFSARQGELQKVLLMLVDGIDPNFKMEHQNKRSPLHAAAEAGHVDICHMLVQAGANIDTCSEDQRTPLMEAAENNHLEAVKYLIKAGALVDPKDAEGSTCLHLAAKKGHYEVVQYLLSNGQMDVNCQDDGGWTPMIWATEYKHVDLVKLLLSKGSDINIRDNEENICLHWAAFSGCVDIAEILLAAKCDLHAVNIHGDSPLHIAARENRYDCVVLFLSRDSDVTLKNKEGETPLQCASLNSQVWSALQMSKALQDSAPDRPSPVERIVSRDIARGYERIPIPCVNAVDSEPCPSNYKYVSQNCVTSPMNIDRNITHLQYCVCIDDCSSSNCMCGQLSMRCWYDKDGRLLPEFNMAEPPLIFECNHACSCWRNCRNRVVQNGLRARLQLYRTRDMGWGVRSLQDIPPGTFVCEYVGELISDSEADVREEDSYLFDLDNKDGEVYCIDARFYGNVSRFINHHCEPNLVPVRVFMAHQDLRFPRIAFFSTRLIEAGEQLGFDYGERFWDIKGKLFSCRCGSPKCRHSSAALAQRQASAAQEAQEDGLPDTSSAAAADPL
Summary of the method: as §1

[4] = target: T4, G9A (Homo sapiens, UniProt Q96KQ7)
T4 construct: purchased DiscoverX BROMOscan (bromodomains); SGC in-house methyltransferase panel
T4 sequence (Q96KQ7 1-1210): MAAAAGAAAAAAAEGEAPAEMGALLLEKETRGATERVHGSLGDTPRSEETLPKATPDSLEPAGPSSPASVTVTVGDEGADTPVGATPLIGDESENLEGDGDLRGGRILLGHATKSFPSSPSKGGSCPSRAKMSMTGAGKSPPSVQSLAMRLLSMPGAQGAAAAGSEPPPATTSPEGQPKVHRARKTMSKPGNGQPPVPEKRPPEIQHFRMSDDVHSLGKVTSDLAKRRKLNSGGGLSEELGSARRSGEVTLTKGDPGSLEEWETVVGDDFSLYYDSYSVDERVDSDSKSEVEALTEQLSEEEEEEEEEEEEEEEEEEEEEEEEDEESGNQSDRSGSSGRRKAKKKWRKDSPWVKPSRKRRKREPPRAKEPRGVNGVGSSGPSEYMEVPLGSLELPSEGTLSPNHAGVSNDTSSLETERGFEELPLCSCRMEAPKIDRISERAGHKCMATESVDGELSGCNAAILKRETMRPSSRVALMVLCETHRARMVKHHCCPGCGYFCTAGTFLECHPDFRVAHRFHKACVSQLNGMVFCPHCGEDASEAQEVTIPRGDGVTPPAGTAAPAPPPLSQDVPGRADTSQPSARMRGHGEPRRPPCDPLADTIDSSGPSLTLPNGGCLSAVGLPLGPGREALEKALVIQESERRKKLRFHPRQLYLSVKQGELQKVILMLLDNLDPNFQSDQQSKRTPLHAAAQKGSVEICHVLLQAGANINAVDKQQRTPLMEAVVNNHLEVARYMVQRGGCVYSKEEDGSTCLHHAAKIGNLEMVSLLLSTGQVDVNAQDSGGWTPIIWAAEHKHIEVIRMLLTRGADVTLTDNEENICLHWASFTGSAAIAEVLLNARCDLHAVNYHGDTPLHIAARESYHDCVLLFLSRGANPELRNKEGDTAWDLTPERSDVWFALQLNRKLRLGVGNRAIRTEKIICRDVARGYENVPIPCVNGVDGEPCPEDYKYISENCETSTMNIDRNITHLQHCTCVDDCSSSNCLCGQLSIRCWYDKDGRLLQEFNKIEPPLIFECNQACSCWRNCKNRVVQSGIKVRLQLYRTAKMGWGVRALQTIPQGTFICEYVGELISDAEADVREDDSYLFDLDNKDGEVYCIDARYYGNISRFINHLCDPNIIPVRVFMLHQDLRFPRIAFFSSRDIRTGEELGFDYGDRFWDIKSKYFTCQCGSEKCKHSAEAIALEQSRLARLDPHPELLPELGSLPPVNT
Summary of the method: as §1

inhibition at 10 µM [1] | inhibition at 10 µM [2] | inhibition at 10 µM [3] | inhibition at 10 µM [4] | MTases Inhibition (%) ([1]; 10µM) | MTases Inhibition (%) ([2]; 10µM) | MTases Inhibition (%) ([3]; 10µM) | MTases Inhibition (%) ([4]; 10µM) | SMILES
12% | 3% | 2% | 3% | – | – | – | – | Cc1c(NC(=O)c2cc(C(N)=O)nc3cc(F)ccc23)c(C(F)(F)F)nn1Cc1ccc(C(C)(C)C)cc1 [BAY-588]
-2% | 3% | 2% | 7% | – | – | – | – | COc1cc(Cl)c(C(=O)N[C@@H](CN[C@H]2CC[C@@H](N)CC2)Cc2ccc(C#N)cc2)cc1-c1ccc(CN[C@H](C)c2ccc(C)cc2)o1 [BAY-850]
-2% | 5% | 0% | -3% | – | – | – | – | Cc1c(NC(=O)c2cc(C(N)=O)nc3cc(F)ccc23)c(C(F)(F)F)nn1Cc1ccc(C#N)cc1 [BAY-876]
5% | -5% | 2% | 1% | – | – | – | – | CN1C[C@H](Nc2cnn(C)c(=O)c2Br)C[C@H](c2ccccc2)C1 [GSK4027]
– | – | – | – | 1% | 0% | 3% | -2% | COc1ccccc1C(=O)Nc1cc2c(cc1N1CCNC[C@H]1C)n(C)c(=O)n2C [GSK6853]
3% | 2% | 2% | -2% | – | – | – | – | CO[C@H]1CNC[C@@H](OCC2CCC(F)(F)CC2)[C@@H]1Nc1ncc(-c2cncc(C)c2)c2cc(C)c(=O)[nH]c12 [GSK8814]
5% | -4% | 2% | -3% | – | – | – | – | Cc1nnc2c3ccccc3c(N[C@@H](C)[C@H](c3ccccc3)N(C)C)nn12 [L-Moses]
7% | 3% | 1% | 7% | – | – | – | – | CN(C)CCCOc1ccc(-c2cc(NCCCn3cccn3)nc(S(C)(=O)=O)n2)cc1 [TP-238]
